Experimental findings from patent US20260115253A1, “VISCOUS COMPOSITION FOR TREATING ISCHEMIA” (National Cheng Kung University, priority 2017, published 2026) are described below.

The test system of this experiment is diabetic mice with lower limb ischemia. Briefly: Diabetic lower limb ischemia mouse model, blood flow by laser Doppler flowmetry. The class given is in vivo. Conditions: 3.125 ng/g of VEGF in composition DIV.

Protocol: C57BL/6 male mice were sourced from the National Cheng Kung University (NCKU) Laboratory Animal Center or BioLASCO Taiwan Co., Ltd. They were housed in the animal facility of the NCKU Institute of Biotechnology for at least one week in order for them to adapt to the environment before experiments were performed.
Since low blood sugar levels in mice would interfere with the results, mice with blood sugar levels within the range of 400 mg/dl to 550 mg/dl were used for the experiments, and minute amount of insulin might be applied to mice to avoid life-threatening high blood sugar levels. In order to avoid the possibility of self-regenerative neovascularization, the femoral artery and its peripheral blood vessels in the lower limbs of the mice were severed. The model minimized the possibility of blood vessel regeneration, which allowed a more accurate assessment of the angiogenic ability of testing drugs. […]
At day 0, 1, 2, 3, 4, 5, 6, 7, 14, 21 and 28 post-surgery, the apparent appearance and blood flow of the lower limb in the mice were evaluated using the score system shown in Table 1 and laser Doppler flowmetry, respectively. ROI was calculated as the ratio of the blood flow signal of the left lower limb to that of the untreated right lower limb post-surgery, and the ratio in percentage was normalized based on the blood flow signal taken before the operation.

On to VEGF, for which the “Blood flow compared with the control group” value is “significantly increased the blood flow at day 14 and then on post surgery”.
